Reference: patent US10035766B2, “Compositions for preventing and/or treating lysosomal storage disorders” (Amicus Therapeutics, Inc., priority 2009, dated 2018)
Where a name gives a salt, the structure may show the parent alone. Read-outs that look alike come from different tables or passages of the source.

Tests used:
GCase [1] = biological target: T1, GCase (Homo sapiens, UniProt P04062); test: GCase activity enhancement (EC50, Emax) of Table 2B; format: cell-based; conditions: for GCase activity enhancement compared to reference compound IFG-tartrate: same maximum level as IFG-tartrate at much lower concentration
T1 sequence (P04062 40-536): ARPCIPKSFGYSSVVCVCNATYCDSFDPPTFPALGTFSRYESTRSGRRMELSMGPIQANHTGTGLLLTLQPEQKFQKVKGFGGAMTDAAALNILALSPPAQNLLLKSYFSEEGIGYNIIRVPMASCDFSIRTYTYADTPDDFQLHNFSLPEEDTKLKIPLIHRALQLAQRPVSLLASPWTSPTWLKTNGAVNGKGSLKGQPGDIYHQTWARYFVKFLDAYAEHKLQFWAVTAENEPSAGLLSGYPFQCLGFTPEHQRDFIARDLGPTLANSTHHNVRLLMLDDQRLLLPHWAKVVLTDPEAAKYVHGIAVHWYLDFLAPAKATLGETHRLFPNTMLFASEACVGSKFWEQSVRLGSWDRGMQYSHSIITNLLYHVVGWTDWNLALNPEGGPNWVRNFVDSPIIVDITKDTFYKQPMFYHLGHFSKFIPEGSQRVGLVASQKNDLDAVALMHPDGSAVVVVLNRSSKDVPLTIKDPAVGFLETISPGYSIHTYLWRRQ

Rat pharmacokinetics = format: in vivo, rats; conditions: for AUC(0-t): AUC0-24 hr
Procedure: Pharmacokinetic (PK) data was obtained in rats to assess the bioavailability of test compound. In particular, the following PK parameters were calculated: bioavailability as measured by area under the Concentration/Time curve (AUC), fraction of dose available (% F; further defined below), clearance (CL), volume of distribution (Vd), and half-life (t½). […] Three rats were used per dosing group. Blood was collected over a 24-hr period. The time points for blood collection after intravenous administration were: 0, 2.5, 5, 10, 15, 30, 45 min, 1, 2, 4, 8, 12, and 24 hrs; time points for blood collection after p.o. administrations were: 0, 5, 15, 30, 45 min, 1, 2, 3, 4, 8, 12, and 24 hrs. Plasma samples were analyzed for compound levels by LC-MS/MS at PPD. Raw data was analyzed by non-compartmental analysis in Win-nonLin to calculate VD, % F, CL, and t1/2.

GCase [2] = biological target: T2, GCase (Mus musculus, UniProt P17439); test: GCase enhancement in brain and spleen after oral dosing over 2 weeks; format: in vivo, mice; design: from tissue; host or cells: brain and spleen of wild-type C57BL/6 mice; conditions: for GCase increase (fold): 9 doses, 24-hour washout; for GCase enhancement in brain and spleen: mice, p.o.
T2 sequence (P17439 20-515): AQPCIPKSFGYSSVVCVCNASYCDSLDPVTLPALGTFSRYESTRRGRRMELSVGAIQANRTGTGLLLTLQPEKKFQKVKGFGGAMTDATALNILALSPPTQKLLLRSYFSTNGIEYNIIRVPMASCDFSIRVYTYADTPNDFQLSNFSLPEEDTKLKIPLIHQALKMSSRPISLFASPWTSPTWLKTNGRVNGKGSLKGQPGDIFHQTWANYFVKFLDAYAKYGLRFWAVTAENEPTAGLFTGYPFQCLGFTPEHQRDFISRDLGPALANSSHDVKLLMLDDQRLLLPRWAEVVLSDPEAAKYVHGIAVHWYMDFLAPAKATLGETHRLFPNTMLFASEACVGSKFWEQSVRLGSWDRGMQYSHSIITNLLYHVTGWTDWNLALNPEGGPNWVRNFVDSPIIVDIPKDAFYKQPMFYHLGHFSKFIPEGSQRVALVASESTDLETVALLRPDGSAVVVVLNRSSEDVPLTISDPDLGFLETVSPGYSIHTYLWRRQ
Procedure: The ability of orally administered test compounds ((3R,4R,5S)-5-(difluoromethyl)piperidine-3,4-diol, (3R,4R,5S)-5-(1-fluoroethyl)piperidine-3,4-diol, (3R,4R,5S)-5-((R)-1-fluoropropyl)piperidine-3,4-diol hydrochloride, or (3R,4R,5S)-5-benzylpiperidine-3,4-diol) to elevate GCase levels was assessed in mice. For this purpose, 8-week old wild-type male mice (C57BL/6) were administered a single p.o. (gavage) dose of a compound of the present invention (i.e., (3R,4R,5S)-5-(difluoromethyl)piperidine-3,4-diol, (3R,4R,5S)-5-(1-fluoroethyl)piperidine-3,4-diol, (3R,4R,5S)-5-((R)-1-fluoropropyl)piperidine-3,4-diol hydrochloride, or (3R,4R,5S)-5-benzylpiperidine-3,4-diol). The dosing solutions were prepared in water. Compounds were administered over 2 weeks as follows: week 1, Mon-Fri (On), Sat-Sun (Off); week 2, Mon-Thu (On); necropsy on Friday. Thus, a total of 9 doses (dosing solutions prepared fresh every day) were given to each mouse, with a 24-hour washout between the last dose and necropsy.
Plasma was collected by spinning blood at 2700 g for 10 minutes at 4° C. Liver, spleen, lung, and brain tissues were removed, washed in cold PBS, blotted dry, flash frozen on dry ice, and stored at −80° C. until analysis. GCase levels were measured by homogenizing approximately 50 mg tissue in 500 μL McIlvane (MI) buffer (100 mM sodium citrate, 200 mM sodium phosphate dibasic, 0.25% sodium taurocholate, and 0.1% Triton X-100, pH 5.2) at pH 5.2 for 3-5 seconds on ice with a micro homogenizer. Homogenates were then incubated at room temperature without and with 2.5 mM conduritol-B-epoxide (CBE) for 30 min. Finally, 3.7 mM 4-methylumbeliferryl-β-glucoside (4-MUG) substrate was added and incubated at 37° C. for 60 min. […] Fluorescence was measured on a plate reader for 1 sec/well using 355 nm excitation and 460 nm emission. Total protein was determined in lysates using the MicroBCA kit according to the manufacturer's instructions. A 4-methylumbelliferone (4-MU) standard curve ranging from 1.0 nM to 50 μM was run in parallel for conversion of raw fluorescence data to absolute GCase activity (in the presence and absence of CBE) and expressed as nanomoles of 4-MU released per milligram of protein per hour (nmol/mg protein/hr). GCase levels and protein levels were calculated using Microsoft Excel (Redmond, Wash.) and GraphPad Prism version 4.02.

[3] = male, Sprague-Dawley, plasma, iv, 3 mg/kg, IV 3 mg/kg free base
[4] = brain, 10 mg/kg FBE p.o., (1) BLQ <[…], (2) BLQ <2.2 nmol/kg
[5] = spleen, 10 mg/kg FBE p.o., (1) BLQ <6.8 nmol/kg, (2) BLQ <7.9 nmol/kg
[6] = spleen, 10 mg/kg FBE p.o., in µM
[7] = spleen, 100 mg/kg FBE p.o., in µM

Structure (SMILES) | GCase activity enhancement compared to reference compound IFG-tartrate (GCase [1]) | dose proportionality (Rat pharmacokinetics) | pharmacokinetic profile (Rat pharmacokinetics) | volume of distribution (Rat pharmacokinetics) | GCase increase (fold) (GCase [2]; brain, 10 mg/kg FBE p.o.) | GCase enhancement in brain and spleen (GCase [2]) | Emax (GCase [1]) | Compound concentration in tissue 2.2 nmol/kg (GCase [2]; [4]) | Compound concentration in tissue 2.2 nmol/kg (GCase [2]; brain, 100 mg/kg FBE p.o.) | GCase increase (fold) (GCase [2]; brain, 100 mg/kg FBE p.o.) | GCase increase (fold) (GCase [2]; spleen, 10 mg/kg FBE p.o.) | Compound concentration in tissue (GCase [2]; [5]) | Compound concentration in GCase assay (GCase [2]; [6]) | Compound concentration in tissue (GCase [2]; spleen, 100 mg/kg FBE p.o.) | GCase increase (fold) (GCase [2]; spleen, 100 mg/kg FBE p.o.) | Compound concentration in GCase assay (GCase [2]; [7]) | further results
CC(F)[C@H]1CNC[C@@H](O)[C@@H]1O (single isomer, unassigned) | concentration-dependent increase in GCase activity | dose proportionality | favorable pharmacokinetic profiles for drug development | suggesting adequate penetration into peripheral tissues | 1.5 fold | significant GCase enhancement in brain and spleen | – | – | – | – | – | – | – | – | – | – | Vd (Rat pharmacokinetics; [3]): 9.77 ± 1.55 L/kg; clearance (Rat pharmacokinetics; [3]): 45.1 mL/min/kg; AUC(0-t) (Rat pharmacokinetics; [3]): 1420 ± 188 ng·h/mL; Cmax (Rat pharmacokinetics; male, Sprague-Dawley, plasma, iv, 3 mg/kg, IV 3 mg/kg free base, read-out: Cmax): 2330 ± 373 ng/mL; half-life (Rat pharmacokinetics; male, Sprague-Dawley, plasma, iv, 3 mg/kg, IV 3 mg/kg free base, read-out: t1/2 (converted)): 2.6 ± 0.64 h; AUC(0-t) (Rat pharmacokinetics; male, Sprague-Dawley, plasma, po, 10 mg/kg, PO 10 mg/kg free base): 7100 ± 606 ng·h/mL; half-life (Rat pharmacokinetics; male, Sprague-Dawley, plasma, po, 10 mg/kg, PO 10 mg/kg free base, read-out: t1/2 (converted)): 2.8 ± 0.5 h; AUC(0-t) (Rat pharmacokinetics; male, Sprague-Dawley, plasma, po, 30 mg/kg, PO 30 mg/kg free base): 21700 ± 1710 ng·h/mL; Cmax (Rat pharmacokinetics; male, Sprague-Dawley, plasma, po, 30 mg/kg, PO 30 mg/kg free base, read-out: Cmax): 6920 ± 451 ng/mL; half-life (Rat pharmacokinetics; male, Sprague-Dawley, plasma, po, 30 mg/kg, PO 30 mg/kg free base, read-out: t1/2 (converted)): 2.7 ± 0.12 h; AUC(0-t) (Rat pharmacokinetics; male, Sprague-Dawley, plasma, po, 100 mg/kg, PO 100 mg/kg free base): 59500 ± 1000 ng·h/mL; Cmax (Rat pharmacokinetics; male, Sprague-Dawley, plasma, po, 100 mg/kg, PO 100 mg/kg free base, read-out: Cmax): 19400 ± 3030 ng/mL; half-life (Rat pharmacokinetics; male, Sprague-Dawley, plasma, po, 100 mg/kg, PO 100 mg/kg free base, read-out: t1/2 (converted)): 2.5 ± 0.19 h; bioavailability (Rat pharmacokinetics; male, Sprague-Dawley, plasma, po, approximately): 50 to 100%; half-life (Rat pharmacokinetics; male, Sprague-Dawley, plasma, read-out: half-life): 1 to 4 h; Compound concentration in GCase assay (GCase [2]; spleen, 10 mg/kg FBE p.o.): BLQ
CC[C@@H](F)[C@H]1CNC[C@@H](O)[C@@H]1O.Cl [(3R,4R,5S)-5-((R)-1-fluoropropyl)-piperidine-3,4-diol hydrochloride] | concentration-dependent increase in GCase activity | – | – | – | 0.9 fold | – | 84 ± 4.1% | BLQ(2) | 38 nmol/kg | 1.1 fold | 0.7 fold | 21 nmol/kg | 0.0001 | 60 nmol/kg | 0.7 fold | 0.0002 | Compound concentration in GCase assay (μM) (GCase [2]; brain, 10 mg/kg FBE p.o.): BLQ
O[C@@H]1[C@@H](Cc2ccccc2)CNC[C@H]1O [(3R,4R,5S)-5-benzyl-piperidine-3,4-diol] | concentration-dependent increase in GCase activity | dose proportionality | favorable pharmacokinetic profiles for drug development | suggesting adequate penetration into peripheral tissues | 1.2 fold | significant GCase enhancement in brain and spleen | 98 ± 4.5% | – | – | 1.4 fold | 1.0 fold | – | – | – | 1.2 fold | – | –
O[C@H]1[C@H](O)CNC[C@@H]1C(F)F [Compound 6, (3R,4R,5S)-5-(Difluoromethyl)piperdine 3,4-diol Hydrochloride] | concentration-dependent increase in GCase activity | dose proportionality | favorable pharmacokinetic profiles for drug development | suggesting adequate penetration into peripheral tissues | – | significant GCase enhancement in brain and spleen | 106 ± 8.7% | 55 nmol/kg | 301 nmol/kg | – | – | 100 nmol/kg | 0.0003 | 435 nmol/kg | – | 0.0015 | CL (Rat pharmacokinetics; IV 3 mg/kg free base): 25.92 mL/min/kg; Cmax (Rat pharmacokinetics; IV 3 mg/kg free base): 2323 ng/mL; VD (Rat pharmacokinetics; IV 3 mg/kg free base): 2.612 L/kg; % F (Rat pharmacokinetics; PO 10 mg/kg free base): 106%; Cmax (Rat pharmacokinetics; PO 10 mg/kg free base): 3363 ng/mL; t1/2 (Rat pharmacokinetics; PO 10 mg/kg free base): 2.58 h; % F (Rat pharmacokinetics; PO 30 mg/kg free base): 101%; Cmax (Rat pharmacokinetics; PO 30 mg/kg free base): 10037 ng/mL; t1/2 (Rat pharmacokinetics; PO 30 mg/kg free base): 2.75 h; % F (Rat pharmacokinetics; PO 100 mg/kg free base): 121%; Cmax (Rat pharmacokinetics; PO 100 mg/kg free base): 33200 ng/mL; t1/2 (Rat pharmacokinetics; PO 100 mg/kg free base): 2.41 h
